Results published in US9084395B2, “Method to arrest growth of invasive species' seeds while in non-natural environment prior to transport” (priority 2012, dated 2015).
Read-outs that look alike come from different tables or passages of the source.

Assays:
[1] = system: whitetop (Cardaria draba) seeds; test: Protocol 1 clean seed dip treatment and germination test, whitetop; type: in vivo; conditions: non-soil environment
Protocol: (§1) All seeds for a Protocol 1 Test were removed from the flower parts and used as clean seeds. A treatment consisted of 100 seeds with four replications for a total of at least 400 seeds per treatment. In some cases extra seeds were treated to accommodate additional germination tests, if needed. In lots of 100, seeds were first rinsed with water to simulate a wash treatment. These pre-wetted seeds were then dipped for one minute in one of the Treatment Rinse percent solutions per volume as show below. Three quality glyphosate products were used. […] The inert ingredients typically comprise tallow amine, lecithin, algaecide and purified water. […] The surfactants added to the percent solution were a penetrator, comprising methylated seed oil, and a spreader, comprising polyether-polymethylsiloxane-copolymer polyether or silicone polyether copolymer.
(§2) Seeds were stirred during the dip to assure all seeds were exposed to the solution. Treated seeds were allowed to air dry with the time to dry recorded. Three main seed types were used in the Protocol 1 Test: whitetop (Cardaria draba), spotted knapweed (Centauria maculosa), and diffuse knapweed (Centauria. diffusa). Two additional seed types were used for one treatment each, Russian thistle (Salsola tragus) and Scotch thistle (Onopordum acanthium).
(§3) When seeds were thoroughly dry after treatment they were packaged and sent for germination testing. […]

[2] = system: spotted knapweed (Centauria maculosa) seeds; test: Protocol 1 clean seed dip treatment and germination test, spotted knapweed; type: in vivo; conditions: non-soil environment
Protocol: as §1, §2, §3

[3] = system: diffuse knapweed (Centauria. diffusa) seeds; test: Protocol 1 clean seed dip treatment and germination test, diffuse knapweed; type: in vivo; conditions: non-soil environment
Protocol: as §1, §2, §3

[4] = system: Russian thistle (Salsola tragus) seeds; test: Protocol 1 clean seed dip treatment and germination test, Russian thistle; type: in vivo; conditions: non-soil environment
Protocol: as §1, §2, §3

[5] = system: Scotch thistle (Onopordum acanthium) seeds; test: Protocol 1 clean seed treatment, germination test in soil environment, Scotch thistle; type: in vivo
Protocol: as §1, §2, §3

[6] = system: Scotch thistle (Onopordum acanthium) seeds; conditions: soil application of glyphosate; cited from earlier work

For `O=C(O)CNCP(=O)(O)O` [glyphosate], the “control, considering treated seeds that may grow to reproductive maturity” value (shortened to “control … to reproductive maturity”) [1] was 95%, the “control … to reproductive maturity” value [2] was 100% and the “control … to reproductive maturity” value [3] was 99%. The “control … to reproductive maturity” value [4] was 72%, the “control … to reproductive maturity” value ([5]; Scotch thistle, non-soil environment) was 100% and the “control of Scotch thistle” value ([5]; direct application of glyphosate to the seed, then placed in soil to germinate) was “controlled”. The “control of Scotch thistle” value [6] was “not controlled”.
